Laboratory results reported in a melting point compilation (Tetko et al.; mined from patent text by program, amines drawn as free bases though some values may be those of a salt).

| SMILES | melting point [°C] |
| --- | --- |
| CCCN1C(=O)/C(=C/c2c[nH]c3ncccc23)N=C1C | 206 |
| N#Cc1ccc(C(O)C23CCCN2C(=O)N(c2cc(Cl)cc(Cl)c2)C3=O)cc1 (stereo not drawn) | 184 |
| C[Si]1(CC(CN)CC(=O)O)CCCCC1 (stereo not drawn) | 140 to 143 |
| C=CC(=O)Oc1ccc(CNS(C)(=O)=O)cc1 | 112 to 115 |
| CC(C)(C)OC(=O)CN(C(=O)OC(C)(C)C)[C@H](CC1CCCCC1)C(=O)N1CCC[C@H]1C(=O)NC1CCc2nc(N)sc2C1 (stereo partly drawn) | 95 to 101 |
| O=C1CCCc2nc3ccccc3c(NCc3ccccc3Cl)c21 | 150 to 161 |
| N#Cc1cccc(C(=O)Nc2cccc(-c3cccc4c3/C(=C/c3ccc[nH]3)C(=O)N4)c2)c1 | 250 to 251 |
| CCOC(=O)C=C(C)c1ccc(-c2ccc(Cl)cc2)cc1 | 91 to 94 |
| COc1cc(OC)cc(N2CCN(C(=O)N(CC(=O)O)c3cc(C)c(C)cc3OC)CC2)c1 | 188 to 189 |
| CC1CCCC(C)N1Cc1ccc2cc(NC(=O)c3ccc(-c4ccccc4)cc3)ccc2n1 (stereo not drawn) | 180 to 181 |
| COc1cc2ncc(C(N)=O)c(Nc3cccc(Br)c3)c2cc1OC | 239 to 242 |
| COc1ccc(Cc2cc(-c3ccc(Cl)cc3)sc2Cc2ccc(OC)cc2)cc1 | 125 to 128 |
| Cc1cccc(Cl)c1C(N)=NO | 136 to 137 |
| CCOC(=O)/C=C/c1cnc(-c2ccc(OCc3ccccc3)c(C34CC5CC(CC(C5)C3)C4)c2)cn1 | 145 to 148 |
| COc1cc(N(C(=O)C[C@H](N)C(=O)O)S(=O)(=O)c2ccc3c(ccn3C)c2)cc(OC)c1OC | 156 to 159 |
| O=C1CCC(c2ccccc2)(c2ccccc2)[C@@H]2CN(C(=S)Cc3ccccc3)C[C@H]12 (racemic) | 221 |
| COC(=O)CCc1oc(=O)[nH]c1-c1ccc(Cl)cc1 | 147 to 148 |
| CCCc1cc(Cl)c2oc(C(=O)O)c(C)c2c1O | 200 to 203 |
| O=C1CCC(N2Cc3c(OCc4ccc(F)c(F)c4)cccc3C2=O)C(=O)N1 (stereo not drawn) | 228 to 230 |

| SMILES | melting point [°C] |
| --- | --- |
| Cc1cccc(NC(=O)NC2N=C(C(C)C)c3cccc(C)c3N(CC(=O)N3CCCCCCC3)C2=O)c1 (stereo not drawn) | 132 to 133 |
| CCOC(=O)c1cnnn1C[C@@H]1CN(c2ccc(N3CCC(=CC#N)CC3)c(F)c2)C(=O)O1 | 70 to 72 |
| O=C1Nc2cccnc2Nc2ncccc21 | > 340 |
| O=C1c2nccnc2C(O)N1c1ccc2ccc(Cl)nc2n1 (stereo not drawn) | 270 |
| COc1cc(C)nc(N(C)C#N)n1 | 123 |
| COC(=O)c1ccc(NN=CC(=O)OCCC#N)cc1S(N)(=O)=O | 188 to 189 |
| O=[N+]([O-])c1ccc(NN=Cc2cnccn2)nc1 | 271 to 272 |
| O=C(OCc1ccccc1)c1cc(C(=O)OCc2ccccc2)[nH]n1 | 120 |
| COC(=O)c1ccc(-c2nc3cc(C(=O)O)ccc3o2)cc1 | 275 to 284 |
| COc1ccc(CNc2cc(Cl)ncc2C=O)cc1Cl | 146 to 148 |
| CCCn1cc(Cc2ccc(C(=O)OC)cc2OC)c2cc(C=O)ccc21 | 99 to 100 |
| CC(=O)NC[C@H]1CN(c2ccc(N3CCC(O)(C(N)=O)CC3)c(F)c2)C(=O)O1 | 238 to 240 |
| NCCCN1CCOC(c2ccccc2)(c2ccccc2)CC1 | 68 to 70 |
| C[N+]([O-])=C(Cn1cncn1)c1ccccc1 | 117 to 119 |
| Cc1c(C)c2c(c(C)c1N)CC(C)(CN1CCN(CC(c3ccccc3)c3ccccc3)CC1)O2 (stereo not drawn) | 130 to 132 |
| COc1ccc2[nH]cc(CCN=c3sc4ccccc4s3)c2c1 | 139 to 140 |
| COC(=O)C1=C(CC(=O)N2CCN(C)CC2)NC(CS(=O)c2ccccc2Cl)=C(C(=O)OC)C1c1c(Cl)cccc1Cl (stereo not drawn) | 180 to 181 |
| CS(=O)(=O)c1ccc(-c2cnn(-c3ccccc3[N+](=O)[O-])c(=O)c2-c2ccc(F)cc2)cc1 | 236 to 239 |
| CC(Oc1ccc(-c2cc(C(F)(F)F)cc(S(N)(=O)=O)c2)cc1)C(O)CCc1cccnc1 (stereo not drawn) | 57 to 59 |
